Here are results for nine compounds from patent publication US6566550B2, “Substituted aromatic ethers as inhibitors of glycine transport” (Pfizer Inc, priority 2001, dated 2003).

Molecules are shown by their SMILES.

Tested on in one data set: not given
Details: not given
In turn, `CN(CCC(Oc1ccc(Oc2cccc3c2CCCC3)cc1)c1ccc(F)cc1)CC(=O)O` (stereo not drawn) returned a melting point of 60 to 61 °C.
The same measure, in the same setting: the figure for `COc1ccc(Oc2ccc(OC(CCN(C)CC(=O)O)c3ccccc3)cc2OC)cc1` (stereo not drawn) is 60.1 °C; for `COc1cc(OC(CCN(C)CC(=O)O)c2ccccc2)ccc1Oc1ccccc1` (stereo not drawn) it is 77.5 °C; for `COc1cc(OC(CCN(C)CC(=O)O)c2ccc(F)cc2)ccc1Oc1ccccc1` (stereo not drawn) it is 139.5 °C.
Regarding `Cc1ccc(Oc2ccc(OC(CCN(C)CC(=O)O)c3ccc(F)cc3)c(Cl)c2)cc1` (stereo not drawn), the melting point came out at 129.3 °C.
`COc1cccc(Oc2cc(OC(CCN(C)CC(=O)O)c3ccc(F)cc3)ccc2C)c1` (stereo not drawn) gave a melting point of 55 to 57 °C.
Consider `COc1ccc(Oc2cc(OC(CCN(C)CC(=O)O)c3ccc(F)cc3)ccc2C)cc1` (stereo not drawn), for which the melting point lay within 63 to 65 °C.
`Cc1ccc(OC(CCN(C)CC(=O)O)c2ccc(F)cc2)cc1Oc1ccc2c(c1)OCO2` (stereo not drawn) registered a melting point of 185 to 188 °C.

The subject of a further data set is NMDA receptor. To be noted: effect blocked by a specific NMDA-site antagonist and a glycine-site antagonist; cited from earlier work.
With `CN(CCC(Oc1ccc(-c2ccccc2)cc1)c1ccc(F)cc1)CC(=O)O` (stereo not drawn) [NFPS], the “post synaptic current driven by the NMDA receptor” value is “increased the post synaptic current driven by the NMDA receptor”.
